Entries after “also recorded” stand apart in the source; their conditions may differ. Read-outs that look alike come from different tables or passages of the source.
How the values were obtained:
Type in all cases: cell-based
A549 (lung cancer) cells = experiment: Two-block schedule LDN+CBD and chemotherapeutic agent, cell number and viability at 96 h
Protocol: • A549 (lung cancer) and HCT116 (colon cancer) cells were cultured with drugs according to the schedules in Table 1. The schedules lasted a total of 96 h. • Treatments were separated into two blocks, each lasting 48 h. Due to the complications of cell testing using three different drugs in three different treatment phases, the CBD and LDN were administered together in one treatment phase and the chemotherapeutic agent in the other treatment phase. • There was a washout period between the two blocks, where exhausted media containing drugs were removed, cells then washed, before fresh media was added that contained the next block of treatment. • The chemotherapeutic agents were gemcitabine (GEM) or oxaliplatin (OXP), and used at an ˜IC20 concentration (1 uM). Low dose naltrexone (LDN) was used at 10 nM and cannabinoid (CBD) was used at 1 uM. “0” means nothing was administered and is used as a control. • Cell number and percentage cell viability were assessed at 96 h. Data were then consolidated to compare the effect of sequence on overall effect.

CB2 = experiment: Western blot of CB2 levels in MCF7 cultures after two days of treatment; conditions: for levels of the CB2 receptor after treatment: cancer cells (MCF7), summary statement
Protocol: Levels of Bcl2-associated death promoter (BAD), p21 protein, the opioid receptors kappa 1 (OPRK1) and mu 1 (OPRM1), and the cannabinoid receptors CBR1 (CB1) and CBR2 (CB2) are visualised by Western blot (left) against GAPDH as a loading control, and quantified via density analysis relative to GAPDH (right).
One illustrative and non-limiting experiment was carried out on cultures of MCF7 (breast cancer) cells. In brief, either LDN at 10 nM or 6BN at 1 μM or 10 μM was administered in vitro to a culture for two days, after which the expression levels of BAD, p21, opioid receptors kappa and mu, CB1, CB2, and GAPDH (as a loading control) were analysed via Western blot and subsequent quantification via density measurement of the bands.
In full, MCF7 cells were seeded into 6-well plates at a density of 1×10^5/well and left to adhere over-night. Naltrexone (10 nM) or 6-β-naltrexol (1 μM or 10 μM) were added to the cells before harvesting cells for western blot analysis. Primary probing was performed with specific antibodies generated against BAD, p21, OPRK1, […], CBR-1 and CBR-2. […] Anti-GAPDH was used as a loading control. All antibodies were used at a dilution of 1:1000, followed by the appropriate HRP conjugated secondary antibodies also at a dilution of 1:1000. Bands were visualised by the SuperSignal chemiluminescent detection system, and densitometry of band intensity was determined using Adobe Photoshop CS3, v10.0, and normalised to the loading control.

[1] = system: MCF7 (breast cancer) cells; experiment: Two-stage sequential treatment, cell number and viability (trypan blue); conditions: LDN 10 nM or 6BN 10 μM for 48 h before cannabidiol 10 μM for 48 h, versus reversed sequence
Protocol: Each treatment lasted four days and consisted of two days of treatment with the first agent (UN=control, LDN=Low Dose Naltrexone at 10 nM CBD=Cannabidiol, 6BN=6-β-naltrexol) before the second-named agent was introduced for a further two days.
Another illustrative and non-limiting experiment was carried out on cultures of MCF7 (breast cancer) cells. In brief, the cultures were treated with LDN or 6BN for two days, after which a cannabinoid was administered for a further two days. Cell number and viability were assessed on day four. The sequence of the administration for each therapeutic agent was reversed and the experiment repeated.
In full, MCF7 cells were seeded into 6-well plates at a density of 1.5×10^4/well and left to adhere. Cells were then cultured with naltrexone (10 nM), 6-β-naltrexol (10 μM) or cannabidiol (10 μM). Drug-containing media was removed after 48 h, and cells were rinsed gently with drug-free medium. Fresh culture medium was then added to the cells supplemented with either naltrexone (10 nM), 6-β-naltrexol (10 μM) or cannabidiol (10 μM), as indicated in the graph. Cell number and viability were assessed a further 48 h later, with percentages of live and dead cells being discriminated by trypan blue dye exclusion. Data were then consolidated to compare the effect of sequence on overall effect.

Structure (SMILES)	IC20 (A549 (lung cancer) cells; concentration used in Example 3, A549 and HCT116, cell line not specified, read-out: IC20 concentration)	levels of the CB2 receptor after treatment (CB2)	effect on inhibiting the proliferation of the cancer, by sequence [1]	rise of CB2 compared among the three treatments (CB2; MCF7 cells, 10 μM 6BN, two days)	IC20 (A549 (lung cancer) cells; Homo sapiens, A549, read-out: IC20 concentration)
O=C1[O][Pt]2([NH][C@@H]3CCCC[C@H]3[NH]2)[O]C1=O [OXP, oxaliplatin]	~1 µM	–	–	–	–
O=C1CC[C@@]2(O)[C@H]3Cc4ccc(O)c5c4[C@@]2(CCN3CC2CC2)[C@H]1O5 [LDN, 17-cyclopropylmethyl-4.5α-epoxy-3,14-dihydroxymorphinan-6-one]	–	significant increase; also recorded: increased significantly	greater effect on inhibiting the proliferation	–	–
Oc1ccc2c3c1OC1C(O)CC[C@@]4(O)[C@@H](C2)N(CC2CC2)CC[C@]314 (stereo partly shown) [6BN, N-cyclopropylmethyl-7,8-dihydro-14-hydroxynorisomorphine]	–	significant increase	greater effect on inhibiting the proliferation	highest	–
Nc1ccn([C@@H]2O[C@H](CO)[C@@H](O)C2(F)F)c(=O)n1 [GEM, gemcitabine]	–	–	–	–	~1 µM
